Measurements from patent US20260285850A1, “SUBSTITUTED OXAZOLIDINONES AND IMIDAZOLINONES AS HERBICIDES” (FMC CORPORATION, priority 2023, published 2026).

Key:
Format in all cases: in vivo
[1] = tested on: barnyardgrass (Echinochloa crus-galli); assay: Test A preemergence soil spray, visual injury rating 0-100; conditions: 10 days
Outline: (§1)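 Directed preemergence spray onto seeded soil or postemergence spray onto 2-10 cm plants (loam plus sand); compound carried in surfactant-containing non-phytotoxic solvent. Injury rated by eye after 10 d greenhouse growth; 0 = no effect, 100 = complete control.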

[2] = tested on: blackgrass (Alopecurus myosuroides); assay: as above; conditions: 10 days
Outline: as §1

corn (Zea mays) [3] = assay: as above; conditions: 10 days
Outline: as §1

[4] = tested on: green foxtail (Setaria viridis); assay: as above; conditions: 10 days
Outline: as §1

kochia (Bassia scoparia) [5] = assay: as above; conditions: 10 days
Outline: as §1

[6] = tested on: oat, wild (wild oat, Avena fatua); assay: as above; conditions: 10 days
Outline: as §1

[7] = tested on: palmer (palmer amaranth, palmer pigweed, Amaranthus palmeri); assay: as above; conditions: 10 days
Outline: as §1

[8] = tested on: ragweed (common ragweed, Ambrosia artemisiifolia); assay: as above; conditions: 10 days
Outline: as §1

[9] = tested on: ryegrass, Italian (italian ryegrass, Lolium multiflorum); assay: as above; conditions: 10 days
Outline: as §1

soybean (Glycine max) [10] = assay: as above; conditions: 10 days
Outline: as §1

[11] = tested on: wheat (Triticum aestivum); assay: as above; conditions: 10 days
Outline: as §1

[12] = tested on: barnyardgrass (Echinochloa crus-galli); assay: Test A postemergence application, visual injury rating 0-100
Outline: as §1

[13] = tested on: blackgrass (Alopecurus myosuroides); assay: as above
Outline: as §1

corn (Zea mays) [14] = assay: as above
Outline: as §1

[15] = tested on: galium (catchweed bedstraw, Galium aparine); assay: as above
Outline: as §1

[16] = tested on: green foxtail (Setaria viridis); assay: as above
Outline: as §1

[17] = tested on: horseweed (Erigeron canadensis); assay: as above
Outline: as §1

kochia (Bassia scoparia) [18] = assay: as above
Outline: as §1

[19] = tested on: oat, wild (wild oat, Avena fatua); assay: as above
Outline: as §1

[20] = tested on: palmer (palmer amaranth, palmer pigweed, Amaranthus palmeri); assay: as above
Outline: as §1

[21] = tested on: ragweed (common ragweed, Ambrosia artemisiifolia); assay: as above
Outline: as §1

[22] = tested on: ryegrass, Italian (italian ryegrass, Lolium multiflorum); assay: as above
Outline: as §1

soybean (Glycine max) [23] = assay: as above
Outline: as §1

[24] = tested on: wheat (Triticum aestivum); assay: as above
Outline: as §1

[25] = tested on: barnyardgrass (Echinochloa crusgalli); assay: Test B flooded paddy test, visual plant response rating 0-100; conditions: 250 g ai/ha, Flood, applied to paddy water, evaluated after 13 days
Outline: (§2)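 Treatment occurs at the 2-leaf stage by adding compound to floodwater standing 3 cm above the soil, a level kept for the whole test. Plants stay in the greenhouse 13 days before visual comparison with controls.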

[26] = tested on: ducksalad (Heteranthera limosa); assay: as above; conditions: 250 g ai/ha, Flood, applied to paddy water, evaluated after 13 days
Outline: as §2

rice (Oryza sativa) = assay: as above; conditions: 250 g ai/ha, Flood, applied to paddy water, evaluated after 13 days
Outline: as §2

[27] = tested on: sedge, umbrella (small-flower umbrella sedge, Cyperus difformis); assay: as above; conditions: 250 g ai/ha, Flood, applied to paddy water, evaluated after 13 days
Outline: as §2

[28] = 62 g ai/ha, 0 = no effect, 100 = complete control
[29] = 62 g ai/ha, postemergence, 10 days, 0 = no effect, 100 = complete control
[30] = Postemergence, 16 g ai/ha, greenhouse 10 days, 0 no effect, 100 complete control

C=CC1(C(=O)NC2CC(C(=O)OC)C2)CN(c2cc(F)cc(F)c2)C(=O)O1 (stereo not shown) [Compound 174]
20: Barnyardgrass plant response rating (0-100) [12, 29]
0: Barnyardgrass plant response rating ([1]; 16 g ai/ha, 0 to 100 scale) | Barnyardgrass plant response rating (0-100) [1, 28] | Blackgrass plant response rating ([2]; 16 g ai/ha, 0 to 100 scale) | Blackgrass plant response rating (0-100) [2, 28] | Corn plant response rating (corn (Zea mays) [3]; 16 g ai/ha, 0 to 100 scale) | Corn plant response rating (0-100) (corn (Zea mays) [3]; [28]) | Foxtail, Green plant response rating ([4]; 16 g ai/ha, 0 to 100 scale) | Foxtail, Green plant response rating (0-100) [4, 28] | Kochia plant response rating (kochia (Bassia scoparia) [5]; 16 g ai/ha, 0 to 100 scale) | Kochia plant response rating (0-100) (kochia (Bassia scoparia) [5]; [28]) | Oat, Wild plant response rating ([6]; 16 g ai/ha, 0 to 100 scale) | Oat, Wild plant response rating (0-100) [6, 28] | Pigweed, Palmer plant response rating ([7]; 16 g ai/ha, 0 to 100 scale) | Pigweed, Palmer plant response rating (0-100) [7, 28] | Ragweed plant response rating ([8]; 16 g ai/ha, 0 to 100 scale) | Ragweed plant response rating (0-100) [8, 28] | Ryegrass, Italian plant response rating ([9]; 16 g ai/ha, 0 to 100 scale) | Ryegrass, Italian plant response rating (0-100) [9, 28] | Soybean plant response rating (soybean (Glycine max) [10]; 16 g ai/ha, 0 to 100 scale) | Soybean plant response rating (0-100) (soybean (Glycine max) [10]; [28]) | Wheat plant response rating ([11]; 16 g ai/ha, 0 to 100 scale) | Wheat plant response rating (0-100) [11, 28] | Blackgrass plant response rating (0-100) [13, 29] | Blackgrass plant response rating (0 to 100 scale) [13, 30] | Corn plant response rating (0-100) (corn (Zea mays) [14]; [29]) | Corn plant response rating (0 to 100 scale) (corn (Zea mays) [14]; [30]) | Galium plant response rating (0-100) [15, 29] | Galium plant response rating (0 to 100 scale) [15, 30] | Foxtail, Green plant response rating (0-100) [16, 29] | Foxtail, Green plant response rating (0 to 100 scale) [16, 30] | Horseweed plant response rating (0-100) [17, 29] | Horseweed plant response rating (0 to 100 scale) [17, 30] | Kochia plant response rating (0-100) (kochia (Bassia scoparia) [18]; [29]) | Kochia plant response rating (0 to 100 scale) (kochia (Bassia scoparia) [18]; [30]) | Oat, Wild plant response rating (0-100) [19, 29] | Oat, Wild plant response rating (0 to 100 scale) [19, 30] | Pigweed, Palmer plant response rating (0-100) [20, 29] | Pigweed, Palmer plant response rating (0 to 100 scale) [20, 30] | Ragweed plant response rating (0-100) [21, 29] | Ragweed plant response rating (0 to 100 scale) [21, 30] | Ryegrass, Italian plant response rating (0-100) [22, 29] | Ryegrass, Italian plant response rating (0 to 100 scale) [22, 30] | Soybean plant response rating (0-100) (soybean (Glycine max) [23]; [29]) | Soybean plant response rating (0 to 100 scale) (soybean (Glycine max) [23]; [30]) | Wheat plant response rating (0-100) [24, 29] | Wheat plant response rating (0 to 100 scale) [24, 30] | Plant response rating, Barnyardgrass (0 to 100 scale, 0 is no effect and 100 is complete control) [25] | Plant response rating, Ducksalad (0 to 100 scale, 0 is no effect and 100 is complete control) [26] | Plant response rating, Rice (0 to 100 scale, 0 is no effect and 100 is complete control) (rice (Oryza sativa)) | Plant response rating, Sedge, Umbrella (0 to 100 scale, 0 is no effect and 100 is complete control) [27]
10: Barnyardgrass plant response rating (0 to 100 scale) [12, 30]
